Measured values taken from PMC5974779, “Prediction of Drug-Induced Hepatotoxicity Using Long-Term Stable Primary Hepatic 3D Spheroid Cultures in Chemically Defined Conditions” (Toxicological Sciences, 2018).
Where two headings read alike, the source gives them in different places.

Columns and labels:
[1] = tested on: primary human hepatocytes (PHH) 3D spheroids
clinical DILI in man = conditions: cited from earlier work; for Clinical DILI classification (Figure 5): structural analogue pairs, 2008 and others
[2] = cited from earlier work
[3] = cited from earlier work; for Extent of hepatic metabolism: ref DrugBank and Prescribers' Digital Reference database
PHH 2D sandwich cultures = conditions: PHH 2D sandwich cultures, 100x Cmax; ref Xu 2008; cited from earlier work
[4] = clinical DILI classification in man (POS/NEG)
[5] = clinical DILI classification used in this study, Supplementary Table 2, ref Chen et al., 2011, Guo et al., 2005, O'Brien et al., 2006, Sakatis et al., 2012, Suzuki et al., 2010, Xu et al., 2008
[6] = clinical DILI classification, Supplementary Table 1, ref Chen et al., 2011, Guo et al., 2005, O'Brien et al., 2006, Sakatis et al., 2012, Suzuki et al., 2010, Xu et al., 2008
[7] = reported pattern of liver damage, Supplementary Table 2, ref literature
[8] = therapeutic total cmax, ref PMID
[9] = FDA drug labeling DILI concern, ref Chen et al., 2011
[10] = FDA drug labeling DILI score, ref Chen et al., 2011
[11] = clinical DILI classification, ref Xu et al. (2008)
[12] = ref Chen et al., 2011, Xu et al.
[13] = DILI classification score, ref Suzuki et al. (2010)

| SMILES | Chemically defined spheroids (this study) 20x [1] | DILI in vivo (clinical DILI in man; [4]) | Classified as (clinical DILI in man; [5]) | DILI in vivo (clinical DILI in man; [6]) | Type of DILI (clinical DILI in man; [7]) | Cmax [2, 8] [nM] | Extent of hepatic metabolism [3] | 2Dsw (Xu 2008) 100x (PHH 2D sandwich cultures) | Classified as (clinical DILI in man; in vivo) | Clinical DILI class (panel heading of Figure 4) (clinical DILI in man; in vivo) | DILI in vivo (clinical DILI in man; in vivo) | FDA (0-8) (clinical DILI in man; in vivo) | Type of DILI (clinical DILI in man; in vivo) | Xu et al. (2008) (clinical DILI in man; in vivo) | FDA (0-8) (clinical DILI in man; [10]) | also measured |
| --- | --- | --- | --- | --- | --- | --- | --- | --- | --- | --- | --- | --- | --- | --- | --- | --- |
| CCC1(c2ccc(N)cc2)CCC(=O)NC1=O (stereo not drawn) [Aminoglutethimide] | Negative | NEG | NEG | NEG | Non-hepatotoxic | 25400 | Moderate | Negative |  |  |  |  |  |  |  |  |
| Cc1nc2n(c(=O)c1CCN1CCC(c3noc4cc(F)ccc34)CC1)CCCC2 [Risperidone] | Negative |  |  |  |  | 80 | Extensive | Negative | POS | High DILI concern | POS | 3 | Hepatocellular injury, Cholestatic injury or Mixed hepatitis | Positive |  | Guo et al. (2005) (clinical DILI in man; in vivo): 2; Suzuki et al. (2010) (clinical DILI in man; in vivo): 1; first pass metabolism ([3]; ref Madden et al., 1995, El-Hage and Surguladze, 2010, Rawden et al., 2000, Villaverde et al.): extensive first pass metabolism |
| CC(C)(C)c1ccc(C(O)CCCN2CCC(C(O)(c3ccccc3)c3ccccc3)CC2)cc1 (stereo not drawn) [Terfenadine] |  |  |  |  |  | 4.5 | Extensive | Negative | NEG | DILI negative | NEG |  | Non-hepatotoxic |  |  |  |
| COc1cc(NC(C)CCCN)c2ncccc2c1 (stereo not drawn) [Primaquine] | Negative | NEG | NEG | NEG | Non-hepatotoxic | 1080 | Extensive | Negative |  |  |  |  |  |  | 0 | hepatotoxicity evaluation in CD-spheroids [1]: did not cause apparent toxicity at any concentration tested; FDA (Severity) (clinical DILI in man; [9]): no DILI concern; Xu et al. (2008) (clinical DILI in man; [11]): Negative; Clinical DILI classification (Figure 5) (clinical DILI in man; [12]): DILI negative |
| CCOC(=O)[C@H](CCc1ccccc1)N[C@@H](C)C(=O)N1Cc2ccccc2C[C@H]1C(=O)O [Quinapril] | Negative | POS | POS | POS | Cholestatic injury | 1200 | Moderate | Negative |  |  |  |  |  |  | 3 | Guo et al. (2005) (clinical DILI in man; DILI classification score, ref Guo et al. (2005)): 3; Suzuki et al. (2010) (clinical DILI in man; [13]): 1; Xu et al. (2008) (clinical DILI in man; [11]): Positive |
| NNCCc1ccccc1 [Phenelzine] | Negative |  |  |  |  | 85 | Extensive | Negative | NEG | DILI negative | NEG | 3 | Non-hepatotoxic | Negative |  | Sakatis et al. (2012) (clinical DILI in man; in vivo): Hepatotoxic |
| Sc1ncnc2nc[nH]c12 [Mercaptopurine] | Positive |  |  |  |  | 480 | Extensive | Negative | POS | Severe DILI | POS | 8 | Cholestatic injury or Mixed hepatitis | Positive |  | FDA (Severity) (clinical DILI in man; in vivo): most DILI concern; Guo et al. (2005) (clinical DILI in man; in vivo): 3; O'Brien et al. (2003) (clinical DILI in man; in vivo): Severely; Sakatis et al. (2012) (clinical DILI in man; in vivo): Hepatotoxic; Suzuki et al. (2010) (clinical DILI in man; in vivo): 2 |
| Cc1ncc(CO)c(CO)c1O [Pyridoxine] | Negative |  |  |  |  | 122 | Extensive | Negative | NEG | DILI negative | NEG | 0 | Non-hepatotoxic | Negative |  | O'Brien et al. (2003) (clinical DILI in man; in vivo): Non-toxic |
| Clc1ccc2c(c1)C(N1CCNCC1)=Nc1ccccc1O2 [Amoxapine] | Negative | NEG | NEG | NEG | Non-hepatotoxic | 220 | Extensive | Negative |  |  |  |  |  |  | 3 | hepatotoxicity evaluation in CD-spheroids [1]: not found to be toxic at any concentration tested; Xu et al. (2008) (clinical DILI in man; [11]): Negative; Clinical DILI classification (Figure 5) (clinical DILI in man; [12]): DILI negative |
| CNC(=O)Oc1ccc2c(c1)[C@]1(C)CCN(C)[C@@H]1N2C [Physostigmine] | Negative | NEG | NEG | NEG | Non-hepatotoxic |  | Extensive |  |  |  |  |  |  |  | 0 | Xu et al. (2008) (clinical DILI in man; [11]): Negative; O'Brien et al. (2003) (clinical DILI in man; in vivo): Non-toxic; Cmax ([2]; human, in vivo): 18 nM |
| CCCN(CCC)C(=O)Cc1c(-c2ccc(Cl)cc2)nc2ccc(Cl)cn12 [Alpidem] | Positive | POS | POS | POS | Hepatocellular injury | 670 | Extensive |  |  |  |  |  |  |  | Withdrawn | Suzuki et al. (2010) (clinical DILI in man; [13]): 3; FDA (Severity) (clinical DILI in man; [9]): most DILI concern; Sakatis et al. (2012) (clinical DILI in man; clinical hepatotoxicity classification, ref Sakatis et al. (2012)): Hepatotoxic |
| OC(Cn1cncn1)(Cn1cncn1)c1ccc(F)cc1F [Fluconazole] | Negative |  |  |  |  | 8820 | Minimal |  | POS | Severe DILI | POS | 8 | Hepatocellular injury | Positive |  | FDA (Severity) (clinical DILI in man; in vivo): most DILI concern; Guo et al. (2005) (clinical DILI in man; in vivo): 3; Sakatis et al. (2012) (clinical DILI in man; in vivo): Hepatotoxic; Suzuki et al. (2010) (clinical DILI in man; in vivo): 1 |
| COC(=O)C1=C(C)NC(C)=C(C(=O)OCC(C)C)C1c1ccccc1[N+](=O)[O-] (stereo not drawn) [Nisoldipine] | Negative |  |  |  |  | 13 | Extensive | Negative |  |  |  |  |  |  |  |  |
| NNc1nnc(NN)c2ccccc12 [Dihydralazine] | Positive | POS | POS | POS | Hepatocellular injury or Cholestatic injury | 2630 | Moderate |  |  |  |  |  |  |  |  |  |
